Patent publication US12414968B2, “Compositions comprising bacterially derived minicells and methods of using the same” (EnGeneIC Molecular Delivery Pty Ltd, priority 2018, dated 2025)
Read-outs that look alike come from different tables or passages of the source.

Legend:
[1] = test system: Glioblastoma cell line U87-MG; assay: MTS cell proliferation assay, U87-MG; format: cell-based; settings: 72 hrs
RAW264.7 cells = RAW264.7 cells incubated directly with EDVs; format: cell-based, mouse; settings: direct incubation
Excerpt: Results: M1 macrophage polarization and dendritic cell maturation in response to EDV Treatment: Due to the fact that the EDV is derived from Salmonella Typhimurium bacteria, the outer EDV membrane contains a substantial lipopolysaccharide (LPS) content (MacDiarmid et al., 2007b). The interaction of high doses of LPS with macrophages is well known to result in macrophage activation and M1 polarization. To determine if the EDV was capable of eliciting a similar phenotypic response, RAW264.7 cells were incubated with Ep-EDV-682 and Ep-EDV and examined for changes in macrophage phenotype and cytokine production. Expression of the co-stimulatory CD86 expression is known to be a phenotypic indicator of macrophage polarization as well as a hallmark of the antitumor M1 tumor associated macrophages (TAMs) (Dong et al., 2016).
Treatment of RAW264.7 cells with EDVs: RAW264.7 cells were seeded in 6-well plates at 3×10^5 cells per well and incubated overnight. […] Cells were harvested 6h and 24h post treatment using a cell scraper and samples were stained with DAPI (Sigma), anti-CD45 Brilliant Violet 510 (BioLegend), anti-CD86 APC-Cy7 (BioLegend), and anti-CD206 AF488 (R&D Systems) and assessed by flow cytometry.

[2] = test system: human breast cancer cell line MDA-MB-468; assay: MTS cell proliferation assay, MDA-MB-468; format: cell-based; settings: 72 hrs
[3] = test system: drug-resistant cancer cells; settings: Quintieri et al., 2005; cited from earlier work
MiaPaca-2 cells = assay: MTS cell proliferation assay, MiaPaca-2; format: cell-based, human; settings: 72 hrs
[4] = test system: RAW264.7 cells co-cultured with treated 4T1 and CT26Ep12.1 cells; assay: RAW264.7 / treated tumor cell co-culture; format: cell-based, mouse; settings: then co-culture
Description: Macrophage and DC/Tumor Cell Co-cultures: CT26Ep12.1 and 4T1 cells were harvested with Versene (Gibco) and cells were collected in 1 mL Eppendorf tubes. Cells were resuspended in 1 mL DMEM (Sigma) supplemented with 10% FBS (Bovogen) containing: Ep-EDV (1000:1 and 5000:1—EDV:cells); Ep-EDV-682 (500:1 and 1000:1—EDV:cells); Ep-EDV-Dox (10,000:1—EDV:cell), 100 pmol PNU-159682, 5 μM Doxorubicin, or media alone. […] Cells were then washed thoroughly with PBS to remove any non-adherent EDV or excess drug. Treated tumor cells were cultured overnight with either RAW264.7 or BMDC at a 1:1 ratio of tumor cells:RAW264.7/BMDC/JAWS II. Supernatants were collected for ELISA analysis. RAW264.7/tumor cell co-cultures were collected using a cell scraper and samples were stained with DAPI (Sigma), anti-CD45 Brilliant Violet 510 (BioLegend), anti-CD86 APC-Cy7, and anti-CD206 AF488 and assessed by flow cytometry. JAWS II/tumor cell and BMDC/tumor cell co-cultures were collected with versene and stained with DAPI (Sigma), CD11b AF488 (Abcam), CD11c PE (Molecular Probes), anti-CD45 Brilliant Violet 510 or PECy5 (BioLegend), anti-CD86 APC-Cy7, MHC Class II PECy5 (Thermo Fisher), MHC Class II Brilliant Violet 421 (BioLegend), 7-AAD (BioLegend), and/or CD80 PE (Thermo Fisher) and assessed by flow cytometry. […] RNA concentration was determined on an Eppendorf biophotometer plus. […]

[5] = test system: bone marrow derived dendritic cells (BMDC) with 4T1 cells; assay: BMDC / treated 4T1 co-culture; format: cell-based, mouse
Description: (§1) The effect of tumor cell death in response to Ep-EDV, Ep-EDV-682, and 682 treatment on dendritic cell maturation was also examined (FIGS. 27E-27I). Bone marrow derived dendritic cells (BMDC) were co-incubated with treated tumor cells (4T1 and CT26Ep12.1) for 48 h, followed by assessment of the production of the type 1 interferons IFNα and IFNβ. Increases in type 1 interferon production by dendritic cells is well established as a mechanism of dendritic cell maturation and enhanced antigen presentation as well as being vital for their interaction with other immune cell subsets including NK cells and T-cells (Fitzgerald-Bocarsly and Feng, 2007; Simmons et al., 2012).
(§2) Bone Marrow Derived DCs (BMDC): Bone marrow was isolated from the femurs and tibias of Balb/c mice. […]
(§3) Macrophage and DC/Tumor Cell Co-cultures: CT26Ep12.1 and 4T1 cells were harvested with Versene (Gibco) and cells were collected in 1 mL Eppendorf tubes. […] RAW264.7/tumor cell co-cultures were collected using a cell scraper and samples were stained with DAPI (Sigma), anti-CD45 Brilliant Violet 510 (BioLegend), anti-CD86 APC-Cy7, and anti-CD206 AF488 and assessed by flow cytometry. […] RNA concentration was determined on an Eppendorf biophotometer plus. […] Data was exported to excel and the relative quantitation was calculated from the ΔΔCt.

[6] = test system: patient derived pancreatic ductal adenocarcinoma cells (head and tail); assay: Drug sensitivity of patient derived PDAC cells; format: cell-based, human
Description: PDAC cells obtained from resected tumor tissue from both the head and tail of the pancreas were examined for drug sensitivity.
The dosed was administered over 20 min via a 20 ml niki pump and premedications were given prior to dosing as before (van Zandwijk et al., 2017). Serum biochemistry, haematology and cytokine expression was evaluated pre and 3 hours post each dose. CA19-9 and C-reactive protein levels were monitored at least bi-weekly. Peripheral Blood mononuclear cells (PBMCs) were examined by flow cytometry prior to dosing and at the end of the cycle for changes in anti-tumour immune cell numbers. Tumour tissue was obtained from the original surgical resection and PDAC cells were cultured and tested for drug sensitivity and surface receptors expression.

[7] = test system: human lung cancer cell line A549; assay: MTS cell proliferation assay, A549; format: cell-based; settings: 72 hrs
MiaPaca-2 GemR cells = assay: MTS cell proliferation assay, MiaPaca-2 GemR; format: cell-based, human; settings: 72 hrs
[8] = test system: human colorectal cancer cell lines Caco-2 and HCT116; assay: MTS cell proliferation assay, Caco-2 and HCT116; format: cell-based; settings: 72 hrs
[9] = test system: Adreno-cortical cancer cell lines ACC01 and ACC07; assay: MTS cell proliferation assay, ACC01 and ACC07; settings: 72 hrs, lines derived from Stage IV patients
Description: All cells were incubated for a further 72 hrs followed by the colorimetric MTS cell proliferation assay (Cory et al., Cancer Commun., 3(7): 207-12 (1991)) using the CellTiter 96 AQueous One Solution Cell Proliferation Assay (Promega Corp., Madison, Wis., USA), according to the manufacturer's instructions. The colorimetric measurements were read at 490 nm.

[10] = test system: bone marrow derived dendritic cells (BMDC) with CT26Ep12.1 cells; assay: BMDC / treated CT26Ep12.1 co-culture; format: cell-based, mouse
Description: as §1, §2, §3

JAWSII cells = assay: αGC-CD1d surface presentation on JAWSII cells (flow cytometry); format: cell-based, mouse; settings: 8h to 48h post-treatment; vs minicells alone and untreated
Description: Treatment of JAWSII spheroids with EDVαGC: JAWSII cells were treated with 1000 ng/ml αGC (positive control); empty minicells and minicellsαGC compared to untreated cells and collected at 8h, 16h, 24h and 48h post-treatment (FIG. 46A-46D).
Initial treatment preparation: 6 hanging drop suspension samples were used for each treatment group per time point. 5×10^4 JAWSII cells and 5×10^8 minicells ([…]) were used for each treatment sample and cultured in JAWSII cell culture media in a total volume of 50 μl. Extra untreated samples were prepared for isotype controls. The appropriate amount of minicells were pelleted by centrifugation at 12,000 g for 7 min and the supernatant was carefully removed by pipetting. Appropriate amount of live JAWS cells (based on the cell count from the previous section) were added to the pelleted minicells. The minicells were then dissociated into single-minicells-cell suspensions by gentle pipetting. The final volume of each sample was then made up by the addition of sterile culture media. […]
Staining the treated JAWSII cells with anti-alpha GalCer:mCD1d complex monoclonal antibody: The entire content of each hanging drop well was carefully collected using a P200 pipette and transferred into an Eppendorf tube. […] The samples were then analyzed using a Gallios flow cytometer.

Structure (SMILES)	inhibition of proliferation / resistance of the cell line [1]	CD86 expression (RAW264.7 cells)	inhibition of proliferation / resistance of the cell line [2]	IC50s for even drug-resistant cancer cells [3]	inhibition of proliferation / resistance of the cells (MiaPaca-2 cells)	CD86 expression on RAW264.7 cells [4]	production of TNF-α and IL-6 (Th1 cytokines) [4]	type 1 interferon mRNA production [5]	drug sensitivity [6]	IC50 ([6]; head and tail PDAC cells)	drug sensitivity ([6]; listed as 682)	cytotoxicity [7]	inhibition of proliferation / resistance of the cells (MiaPaca-2 GemR cells)	inhibition of proliferation / resistance of the cell lines [8]	cytotoxic effect / resistance of the cell lines [9]	type 1 interferon mRNA production [10]	anti-GalCer:mCD1d staining (αGC surface presentation) (JAWSII cells)
COc1cccc2c1C(=O)c1c(O)c3c(c(O)c1C2=O)C[C@@](O)(C(=O)CO)C[C@@H]3OC1CC2C(OC3C(OC)OCCN23)C(C)O1 (stereo partly drawn) [PNU-159682, 3′-deamino-3″,4′-anhydro-[2″(S)-methoxy-3″(R)-oxy-4″-morpholinyl] doxorubicin]	could inhibit proliferation	did not induce the same response	inhibited proliferation	pM range	could inhibit proliferation	unable to produce any significant change	no increase	unable to elicit increases	sensitive	pM range	extreme sensitivity	greater cytotoxicity	could inhibit proliferation	inhibited proliferation	potent cytotoxic effects	unable to elicit increases	–
CCCCCCCCCCCCCCCCCCCCCCCCCC(=O)N[C@@H](CO[C@H]1O[C@H](CO)[C@H](O)[C@H](O)[C@H]1O)[C@H](O)[C@H](O)CCCCCCCCCCCCCC [free α-GC, α-galactosylceramide]	–	–	–	–	–	–	–	–	–	–	–	–	–	–	–	–	clear shift
